Measured values as given in PubChem BioAssay AID192 (DTP/NCI, 2004).
Values joined by “and” are separate entries in the source; they are usually repeats but may differ in a detail not shown here. Identical values can stand only once. Toxic doses and inconclusive results are not listed.

System: BDF1 mice, B16 melanoma ip, median survival T/C
Assay: NCI In Vivo Anticancer Drug Screen. Data for tumor model B16 Melanoma (intraperitoneal) in B6D2F1 (BDF1) mice
Conditions: endpoint: median survival time, higher = longer survival
Procedure, shortened: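 Each result divides a survival or tumor-size measurement in the compound-treated group by the same measurement in the vehicle group.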

[1] = dose: 100.0 mg/kg/injection, schedule: Q01DX009 (ip), vehicle: Klucel (hydroxypropylcellulose) (HPC)
[2] = dose: 200.0 mg/kg/injection, schedule: Q01DX009 (ip), vehicle: Klucel (hydroxypropylcellulose) (HPC)
[3] = dose: 100.0 mg/kg/injection, schedule: Q01DX009 (ip), vehicle: saline with Tween-80
[4] = dose: 200.0 mg/kg/injection, schedule: Q01DX009 (ip), vehicle: saline with Tween-80
[5] = dose: 100.0 mg/kg/injection, schedule: Q04DX003 (ip), vehicle: Klucel (hydroxypropylcellulose) (HPC)
[6] = dose: 100.0 mg/kg/injection, schedule: Q01DX009 (ip), vehicle: saline
[7] = dose: 200.0 mg/kg/injection, schedule: Q01DX009 (ip), vehicle: saline
[8] = dose: 400.0 mg/kg/injection, schedule: Q01DX009 (ip), vehicle: saline
[9] = dose: 25.0 mg/kg/injection, schedule: Q01DX009 (ip), vehicle: saline
[10] = dose: 50.0 mg/kg/injection, schedule: Q01DX009 (ip), vehicle: Klucel (hydroxypropylcellulose) (HPC)
[11] = dose: 25.0 mg/kg/injection, schedule: Q01DX009 (ip), vehicle: saline with Tween-80
[12] = dose: 50.0 mg/kg/injection, schedule: Q01DX009 (ip), vehicle: saline with Tween-80

CCOc1ccc(NC(=O)Nc2cccc(Cl)c2)cc1
T/C [1]: 100 % of control
T/C [2]: 93 % of control
T/C (dose: 400.0 mg/kg/injection, schedule: Q01DX009 (ip), vehicle: Klucel (hydroxypropylcellulose) (HPC)): 96 % of control

C=CCOc1cccc(OCC=C)c1C
T/C [3]: 106 % of control
T/C [4]: 97 % of control

COC(=O)CCCCCNC(=O)NCCCCCC(=O)OC
T/C [5]: 86 % of control
T/C (dose: 200.0 mg/kg/injection, schedule: Q04DX003 (ip), vehicle: Klucel (hydroxypropylcellulose) (HPC)): 95 % of control
T/C (dose: 400.0 mg/kg/injection, schedule: Q04DX003 (ip), vehicle: Klucel (hydroxypropylcellulose) (HPC)): 91 % of control

C=CCOCC(O)CO (stereo not given)
T/C (dose: 100.0 mg/kg/injection, schedule: Q04DX003 (ip), vehicle: saline): 109 % of control
T/C (dose: 200.0 mg/kg/injection, schedule: Q04DX003 (ip), vehicle: saline): 93 % of control
T/C (dose: 400.0 mg/kg/injection, schedule: Q04DX003 (ip), vehicle: saline): 102 % of control

COC(=O)C1C2CC3c4[nH]c5ccc(OC)cc5c4CCN3CC2CC(OC(=O)c2cc(OC)c(OC)c(OC)c2)C1OC (stereo not given)
T/C (dose: 0.17 mg/kg/injection, schedule: Q01DX009 (ip), vehicle: Klucel (hydroxypropylcellulose) (HPC)): 88 % of control
T/C (dose: 0.35 mg/kg/injection, schedule: Q01DX009 (ip), vehicle: Klucel (hydroxypropylcellulose) (HPC)): 110 % of control
T/C (dose: 1.42 mg/kg/injection, schedule: Q01DX009 (ip), vehicle: Klucel (hydroxypropylcellulose) (HPC)): 91 % of control
T/C (dose: 2.85 mg/kg/injection, schedule: Q01DX009 (ip), vehicle: Klucel (hydroxypropylcellulose) (HPC)): 89 % of control
T/C (dose: 22.81 mg/kg/injection, schedule: Q01DX009 (ip), vehicle: Klucel (hydroxypropylcellulose) (HPC)): 100 % of control
T/C (dose: 45.62 mg/kg/injection, schedule: Q01DX009 (ip), vehicle: Klucel (hydroxypropylcellulose) (HPC)): 98 % of control

COC12[C@@H]3N[C@@H]3CN1C1=C(C(=O)C(NCCSSCCNC3=C(C)C(=O)C4=C(C3=O)C(COC(N)=O)[C@]3(OC)C5N[C@@H]5CN43)=C(C)C1=O)[C@@H]2COC(N)=O (stereo not given in full)
T/C (dose: 0.2 mg/kg/injection, schedule: Q04DX003 (ip), vehicle: other): 168 % of control
T/C (dose: 0.4 mg/kg/injection, schedule: Q04DX003 (ip), vehicle: other): 241 % of control
T/C (dose: 0.8 mg/kg/injection, schedule: Q04DX003 (ip), vehicle: other): 295 % of control
T/C (dose: 1.5 mg/kg/injection, schedule: Q04DX003 (ip), vehicle: saline with Tween-80): 184 % of control
T/C (dose: 1.6 mg/kg/injection, schedule: Q04DX003 (ip), vehicle: other): 295 % of control
T/C (dose: 3.0 mg/kg/injection, schedule: Q04DX003 (ip), vehicle: saline with Tween-80): 197 % of control
T/C (dose: 3.2 mg/kg/injection, schedule: Q04DX003 (ip), vehicle: other): 295 % of control
T/C (dose: 6.0 mg/kg/injection, schedule: Q04DX003 (ip), vehicle: saline with Tween-80): 288 % of control
T/C (dose: 6.4 mg/kg/injection, schedule: Q04DX003 (ip), vehicle: other): 295 % of control
T/C (dose: 12.0 mg/kg/injection, schedule: Q04DX003 (ip), vehicle: saline with Tween-80): 288 % of control

CC(C)(C)OC(=O)N1CCCC1C(=O)N1CCCC1C(=O)Oc1ccccc1 (stereo not given)
T/C [6]: 121 % of control
T/C [7]: 110 % of control
T/C [8]: 114 % of control

COc1cc(C2=NCCc3cc4c(cc32)OCO4)cc(OC)c1OC
T/C (dose: 12.5 mg/kg/injection, schedule: Q01DX009 (ip), vehicle: saline): 112 % of control
T/C [9]: 118 % of control
T/C (dose: 50.0 mg/kg/injection, schedule: Q01DX009 (ip), vehicle: saline): 104 % of control
T/C [6]: 101 % of control

CC(=O)CC(=O)NCc1ccncc1
T/C [6]: 118 % of control
T/C [7]: 112 % of control
T/C [8]: 116 % of control

C1CC[N-]CC1.CC(=N\O)/C(C)=N/O.CC(=N\O)/C(C)=N/O.[CH-]1CCCCC1.[Co+2]
T/C [10]: 97 % of control
T/C [1]: 94 % of control

O=C(O)c1ccccc1C(=O)Nc1ccc([N+](=O)[O-])cc1Cl
T/C [10]: 93 % of control
T/C [1]: 100 % of control
T/C [2]: 96 % of control

c1ccc(C(C2=NCCN2)c2ccccc2)cc1
T/C (dose: 25.0 mg/kg/injection, schedule: Q04DX003 (ip), vehicle: Klucel (hydroxypropylcellulose) (HPC)): 105 % of control
T/C (dose: 50.0 mg/kg/injection, schedule: Q04DX003 (ip), vehicle: Klucel (hydroxypropylcellulose) (HPC)): 91 % of control
T/C [5]: 95 % of control

O=Cc1ccc(C(Cl)(Cl)Cl)cc1
T/C (dose: 12.5 mg/kg/injection, schedule: Q01DX009 (ip), vehicle: saline with Tween-80): 91 % of control
T/C [11]: 103 % of control
T/C [12]: 101 % of control and 104 % of control
T/C [3]: 106 % of control and 107 % of control
T/C [4]: 103 % of control and 110 % of control

O=C(COc1ccc(Cl)cc1)Nc1cccc(C(F)(F)F)c1
T/C (dose: 5.0 mg/kg/injection, schedule: Q01DX009 (ip), vehicle: Klucel (hydroxypropylcellulose) (HPC)): 117 % of control
T/C (dose: 9.4 mg/kg/injection, schedule: Q01DX009 (ip), vehicle: saline with Tween-80): 93 % of control
T/C (dose: 10.0 mg/kg/injection, schedule: Q01DX009 (ip), vehicle: Klucel (hydroxypropylcellulose) (HPC)): 101 % of control
T/C (dose: 37.5 mg/kg/injection, schedule: Q01DX009 (ip), vehicle: saline with Tween-80): 90 % of control and 91 % of control

Cc1cc[n+](C)c2ccccc12
T/C (dose: 9.37 mg/kg/injection, schedule: Q01DX009 (ip), vehicle: saline): 95 % of control
T/C (dose: 18.75 mg/kg/injection, schedule: Q01DX009 (ip), vehicle: saline): 92 % of control
T/C (dose: 37.5 mg/kg/injection, schedule: Q01DX009 (ip), vehicle: saline): 97 % of control

CC(CCC(=O)O)(c1cc(Cl)c(O)c(Cl)c1)c1cc(Cl)c(O)c(Cl)c1
T/C (dose: 25.0 mg/kg/injection, schedule: Q01DX009 (ip), vehicle: gum acacia): 98 % of control
T/C (dose: 50.0 mg/kg/injection, schedule: Q01DX009 (ip), vehicle: gum acacia): 115 % of control
T/C (dose: 100.0 mg/kg/injection, schedule: Q01DX009 (ip), vehicle: gum acacia): 122 % of control

COc1cc(/C=C/C(N)=O)cc(OC)c1OC
T/C [9]: 107 % of control
T/C [6]: 94 % of control
T/C [7]: 102 % of control

O=C(Nc1ccccc1Cl)OCC(Cl)(Cl)Cl
T/C (dose: 75.0 mg/kg/injection, schedule: Q04DX003 (ip), vehicle: Klucel (hydroxypropylcellulose) (HPC)): 96 % of control
T/C (dose: 150.0 mg/kg/injection, schedule: Q04DX003 (ip), vehicle: Klucel (hydroxypropylcellulose) (HPC)): 91 % of control
T/C (dose: 300.0 mg/kg/injection, schedule: Q04DX003 (ip), vehicle: Klucel (hydroxypropylcellulose) (HPC)): 102 % of control

C[C@@H]1CC2=CC(=O)CC[C@@H]2[C@H]2CC[C@@]3(C)[C@@H](CC[C@]3(C)O)[C@@H]21
T/C [11]: 102 % of control
T/C [12]: 92 % of control and 113 % of control
T/C [3]: 97 % of control and 108 % of control

Nc1nc(-c2ccccc2N=NN2CCN(N=Nc3ccccc3-c3nc(N)c4ccccc4n3)CC2)nc2ccccc12
T/C (dose: 3.12 mg/kg/injection, schedule: Q01DX009 (ip), vehicle: Klucel (hydroxypropylcellulose) (HPC)): 95 % of control
T/C (dose: 6.25 mg/kg/injection, schedule: Q01DX009 (ip), vehicle: Klucel (hydroxypropylcellulose) (HPC)): 92 % of control
T/C (dose: 12.5 mg/kg/injection, schedule: Q01DX009 (ip), vehicle: Klucel (hydroxypropylcellulose) (HPC)): 107 % of control
T/C (dose: 25.0 mg/kg/injection, schedule: Q01DX009 (ip), vehicle: Klucel (hydroxypropylcellulose) (HPC)): 107 % of control
T/C [10]: 113 % of control

C(=C\c1ccccc1)/C[P+](c1ccccc1)(c1ccccc1)c1ccccc1
T/C (dose: 0.06 mg/kg/injection, schedule: Q01DX009 (ip), vehicle: saline sonified): 100 % of control
T/C (dose: 1.25 mg/kg/injection, schedule: Q01DX009 (ip), vehicle: saline sonified): 93 % of control
T/C (dose: 2.5 mg/kg/injection, schedule: Q01DX009 (ip), vehicle: saline sonified): 97 % of control
T/C (dose: 5.0 mg/kg/injection, schedule: Q01DX009 (ip), vehicle: saline sonified): 91 % of control

COc1cc2c(cc1OC)C(c1ccc(O)c(O)c1)CNC2 (stereo not given)
T/C (dose: 50.0 mg/kg/injection, schedule: Q04DX003 (ip), vehicle: saline with Tween-80): 99 % of control
T/C (dose: 100.0 mg/kg/injection, schedule: Q04DX003 (ip), vehicle: saline with Tween-80): 89 % of control
T/C (dose: 200.0 mg/kg/injection, schedule: Q04DX003 (ip), vehicle: saline with Tween-80): 90 % of control

O=CNC(Cc1cnc[nH]1)C(=O)O (stereo not given)
T/C [12]: 102 % of control
T/C [3]: 100 % of control
T/C [4]: 103 % of control
T/C (dose: 400.0 mg/kg/injection, schedule: Q01DX009 (ip), vehicle: saline with Tween-80): 100 % of control
